Series [1] concerns normal subjects. The series can be described thus: Safety and tolerability of regadenoson with and without prior caffeine. It counts as in vivo, human. As for the experimental part:
(§1) 15O water was used as the radionuclide in the PET scans. There was a 1- to 14-day washout period between dosing days. Blood samples and measures of safety were collected until 120 minutes after study drug administration.
Safety measures included adverse events (AEs), serious adverse events, vital signs (HR and BP), ECG, concomitant medications, and a tolerability questionnaire. All available data from subjects who received the single dose of regadenoson were to be included in the statistical summaries.
ECG intervals and changes from baseline values in ECG intervals were to be presented, as were occurrences of rhythm or conduction abnormalities. Concomitant medication usage was to be summarized.
Tolerability questionnaire responses were to be analyzed using the Wilcoxen rank sum test (“How did you feel?” question) and the exact Cochran-Mantel-Haenszel test (Day 2—only question “How did this test compare to the first test?”).

Series [2] deals with conscious dogs. The series can be described thus: Regadenoson-induced changes in hemodynamics (MAP, HR, LVSP, LV dP/dtMax) with and without caffeine in conscious dogs. It counts as in vivo, dog. Particulars: for increase in peak HR from baseline: p<0.05 vs control. On the procedure: (§2) Sixteen chronically instrumented male mongrel dogs weighing from 22-30 kg were used in the study. The animal protocol was approved by the Institutional Animal Care and Use Committee of New York Medical College and conforms to the Guide for the Care and Use of Laboratory Animal by the United States National Institutes of Health.
(§3) Dogs were sedated with acepromazine (0.3 mg/kg, IM) and anesthetized with pentobarbital sodium (25 mg/kg, IV). After intubation, dogs were artificially ventilated with room air. A thoracotomy was made in the fifth intercostal space using sterile techniques. A Tygon catheter (Cardiovascular Instruments, Wakefield, Mass.) was inserted into the descending thoracic aorta and another one was inserted into the left atrium. In 9 dogs, an ultrasound flow transducer (Transonic Systems, Ithaca, N.Y.) was placed around the left circumflex coronary artery. A solid-state pressure gauge (P6.5, Konisberg Instruments, Pasadena, Calif.) was placed into the left ventricle through the apex. The chest was closed in layers. The catheters and wires were tunneled subcutaneously and externalized through the skin at the back of the dog's neck. Dogs were allowed to recover from the surgery before experiments were performed, and were trained to lie on a table.
(§4) Phasic arterial pressure was measured by connecting the aortic catheter to a strain gauge transducer (P23 ID, LDS Test and Measurement, Valley View, Ohio). Left ventricular pressures were measured by the solid pressure gauge. CBF (mL/min) was measured from an ultrasound flow transducer using a Transonic flowmeter (T206, Transonic Systems, Ithaca, N.Y.). Two indices were used to describe the Regadenoson-induced coronary vasodilation: 1) the maximum increase in CBF and 2) the duration of the 2-fold increase in CBF (the period of time that CBF was elevated to a level ≧2-fold of baseline CBF). All pressure and flow data were acquired and analyzed using a Ponemah System (Version 3.30 or 4.20, LDS Test and Measurement, Valley View, Ohio). MAP and HR were calculated from phasic blood pressure, and LV dP/dtMax was calculated from the left ventricular systolic pressure.
(§5) On the day of an experiment, a dog was placed on a table, where it lay quietly during the experiment. A catheter was inserted into a peripheral vein in the leg and attached to an infusion line to administer drugs without disturbing the dog. The experiment was begun after MAP, HR and CBF were stable.
(§6) Regadenoson was supplied by CV Therapeutics, Inc. as a sterile stock solution (Lot#: 803604, 0.08 mg/mL), that was made using 15% Propylene Glycol (pH 7) and was diluted in normal saline before injection.
The statistical significance of a difference between the value of a parameter at baseline and at the indicated time point after drug administration was determined using a One-Way Repeated Measures ANOVA followed by Tukey's Test. […] Results with p<0.05 were considered to be significant. A computer-based software package (SigmaStat 2.03) was used for statistical analysis. All data are presented as Mean±SEM.

Series [3] deals with normal subjects. The experiment in a line: Crossover PET study of regadenoson-induced myocardial blood flow (coronary flow reserve) with caffeine or placebo. It counts as in vivo, human. On the procedure:
as §1
Open-label study drug was supplied as sterile stock solution in single-use vials each containing 5 mL of regadenoson (0.08 mg/mL). Regadenoson, 400 μg, was administered as a rapid bolus, through an iv catheter over approximately 10 seconds, followed immediately by a 5 mL saline flush.
On each of 2 study days, subjects received a single dose of regadenoson, administered intravenously as a rapid (10-second) bolus of 5 mL, followed by a 5 mL saline flush. There was a 1- to 14-day washout period between doses.
The CVT tracking number for the placebo capsules was 1341 (Leg 2).
The primary efficacy measure was the log coronary flow reserve (CFR), which is the ratio of stress MBF after regadenoson dosing to the resting MBF.
The data were also to be analyzed using Wilcoxon's rank-sum test.

Series [4] in a line: Plasma regadenoson concentrations after IV injection in conscious dogs. Particulars: effect of caffeine at 1, 2, 4 or 10 mg/kg. As for the experimental part:
Each dog received an IV injection of 5 μg/kg of Regadenoson. […] LVSP, LV dP/dtMax, MAP, HR and CBF were recorded continuously. Blood samples were taken from the left atrial catheter at 1, 3, 5, 15, 30, 45 and 60 min following injections of Regadenoson.

The subject of series [5] is conscious dogs. The series can be described thus: Regadenoson-induced coronary vasodilation (CBF) with and without caffeine in conscious dogs. The format is in vivo, dog. Particulars: for change of the maximum increase in CBF induced by Regadenoson vs control: p>0.05. As for the experimental part: as §2, §3, §4, §5
In 4 dogs, two doses of Regadenoson (5 μg/kg, IV) were given 90 min apart (without blood sampling) to determine if there is tachyphylaxis of Regadenoson-induced coronary vasodilation.
as §6
The statistical significance of a difference between the value of a parameter at baseline and at the indicated time point after drug administration was determined using a One-Way Repeated Measures ANOVA followed by Tukey's Test. The statistical significance of a difference between responses to Regadenoson in the absence and presence of caffeine was determined using a Two-Way Repeated Measures ANOVA followed by Tukey's Test. Results with p<0.05 were considered to be significant. A computer-based software package (SigmaStat 2.03) was used for statistical analysis. All data are presented as Mean±SEM.

Where [6] appears, read: caffeine 200 mg po before regadenoson 400 μg IV.
The mark [7] stands for this setting: regadenoson 5 μg/kg IV in the presence of caffeine 1 mg/kg.
[8] abbreviates: regadenoson 5 μg/kg IV in the presence of caffeine 2 mg/kg.
[9] abbreviates: regadenoson 400 μg IV, caffeine 200 mg po.
[10] abbreviates: after regadenoson 400 μg IV dosing.
Setting [11] is: regadenoson 400 μg IV, at any time, 25/43 subjects.

Experimental findings from US20090081120A1, “Methods and Compositions for Increasing Patient Tolerability During Myocardial Imaging Methods” (CV Therapeutics, Inc., priority 2006, published 2009) are described below.

Molecules are shown by their SMILES.

Turning to `Cn1c(=O)c2c(ncn2C)n(C)c1=O` [Caffeine, caffeine], the “effect of caffeine on the severity of AEs” value in the series on normal subjects [1] (setting [6]) was “attenuated”. For the same compound, the “overall incidence of AEs between the placebo and caffeine groups” value with normal subjects [1] (setting [6]) was “no difference”. In addition, the “effect of caffeine on the HR increase caused by regadenoson” value in the series on normal subjects [1] (caffeine 200 mg po before regadenoson 400 μg IV, p<0.001) is “attenuated”. For the same compound, the “tolerability questionnaire: feeling after the caffeine test vs after the placebo test” value with normal subjects [1] (caffeine 200 mg po, regadenoson 400 μg IV, p<0.001) was “felt better”. Moreover, in the series with normal subjects [1] (test with caffeine 200 mg po vs placebo, regadenoson 400 μg IV, p<0.001), the “tolerability questionnaire: comfort during the test” value is “felt more comfortable”. In addition, the results for the “peak decrease in MAP from baseline” value in the series with conscious dogs [2] (regadenoson 5 μg/kg IV in the presence of 4 mg/kg caffeine), with conscious dogs [2] (setting [7]) and with conscious dogs [2] (setting [8]) were 2±5%, 13±2% and 13±1%, respectively. Further, in the series with conscious dogs [2] (regadenoson 5 μg/kg IV in the presence of 4 mg/kg of caffeine, p>0.05), the “decrease in LVSP from control” value turned out to be 1±5%. Moreover, the “increase in MAP from baseline” value with conscious dogs [2] (regadenoson 5 μg/kg IV in the presence of 10 mg/cg caffeine, insignificant) worked out at 9±6%. Moreover, the “increase in LVSP from control” value in the series with conscious dogs [2] (regadenoson 5 μg/kg IV in the presence of 10 mg/kg caffeine, significant) is reported as 11±7%. Besides, the results for the “decrease in LVSP from baseline” value in the series on conscious dogs [2] (setting [7]) and in the series on conscious dogs [2] (setting [8]) were 9±3% and 6±2%, respectively. The results for the “increase in peak HR from baseline” value in the series on conscious dogs [2] (setting [8]), in the series with conscious dogs [2] (regadenoson 5 μg/kg IV in the presence of caffeine 4 mg/kg) and in the series with conscious dogs [2] (regadenoson 5 μg/kg IV in the presence of caffeine 10 mg/kg) were 109±21%, 79±20% and 74±16%, respectively. Further, the “change in CFR with caffeine” value in the series with normal subjects [3] (caffeine 200 mg po vs placebo before regadenoson 400 μg IV) was “no change in CFR detected”. The “change in CFR (printed: not ≧20%)” value in the series with normal subjects [3] (caffeine 200 mg po vs placebo before regadenoson 400 μg IV, 95% confidence) is less than 20%. The “exponentiated lower limit of the 90% confidence interval for log CFR (caffeine versus placebo difference)” value in the series on normal subjects [3] (setting [9]) came to 0.80. In the series with normal subjects [3] (setting [9]), the “exponentiated lower limit of the 95% confidence interval for log CFR (caffeine versus placebo difference)” value is recorded as 0.78. Also, the “exponentiated upper limit of the 90% confidence interval for log CFR (caffeine versus placebo difference)” value with normal subjects [3] (setting [9]) worked out at 1.06. Further, the “exponentiated upper limit of the 95% confidence interval for log CFR (caffeine versus placebo difference)” value in the series on normal subjects [3] (setting [9]) worked out at 1.08. The “Pharmacokinetic profiles of Regadenoson” value in series [4] is on record as “not changed”. In addition, in the series with conscious dogs [5] (45 min after 1, 2, 4, and 10 mg/kg caffeine), the “Baseline values of CBF before and after caffeine treatment” value is “not significantly different”. Besides, the “change of the maximum increase in CBF induced by Regadenoson vs control” value with conscious dogs [5] (regadenoson 5 μg/kg IV 45 min after caffeine 1 mg/kg IV) is 2±3%; in the series on conscious dogs [5] (regadenoson 5 μg/kg IV 45 min after caffeine 2 mg/kg IV), −0.7±3%; in the series on conscious dogs [5] (regadenoson 5 μg/kg IV 45 min after caffeine 4 mg/kg IV), −16±5%; in the series with conscious dogs [5] (regadenoson 5 μg/kg IV 45 min after caffeine 10 mg/kg IV) it was −13±8%.

For the compound `CNC(=O)c1cnn(-c2nc(N)c3ncn([C@@H]4O[C@H](CO)[C@@H](O)[C@H]4O)c3n2)c1` [Regadenoson, (1-{9-[(4S,2R,3R,5R)-3,4-dihydroxy-5-(hydroxymethyl)oxolan-2-yl]-6-aminopurin-2-yl}pyrazol-4-yl)-N-methylcarboxamide], in the series on normal subjects [1] (setting [10]), the “QTc prolongation (>500 msec and change of >60 msec) by ECG analysis, not reported as AE” value was “one subject”; the “first degree AV block by ECG analysis, not reported as AE” value is “one subject”. The “subjects with sensation of heaviness” value in the series with normal subjects [1] (regadenoson 400 μg IV) is listed as 28%. This compound gave a subjects with paraesthesia in the series on normal subjects [1] (regadenoson 400 μg IV, 8/43 subjects) of 19%. The compound also registered a subjects with headache in the series on normal subjects [1] (regadenoson 400 μg IV, 12/43 subjects) of 28%. In the series with normal subjects [1] (regadenoson 400 μg IV, 13/43 subjects), this compound came in with a subjects with flushing of 30%. Moreover, the subjects with palpitations in the series with normal subjects [1] (regadenoson 400 μg IV, 21/43 subjects) was found to be 49%. This compound returned a subjects with dyspnoea with normal subjects [1] (regadenoson 400 μg IV, 24/43 subjects) of 56%. Further, the “subjects with AEs: ear and labyrinth disorders” value in the series with normal subjects [1] (regadenoson 400 μg IV, at any time, 1/43 subjects) was determined as 2%. The “subjects with AEs: gastrointestinal disorders” value in the series with normal subjects [1] (regadenoson 400 μg IV, at any time, 2/43 subjects) is given as 5%. For the same compound, the “subjects with AEs: general disorders and administration site conditions” value in the series on normal subjects [1] (regadenoson 400 μg IV, at any time, 11/43 subjects) was found to be 26%. Also, in the series on normal subjects [1] (regadenoson 400 μg IV, at any time, 12/43 subjects), the “subjects with AEs: musculoskeletal and connective tissue disorders” value is recorded as 28%. In the series on normal subjects [1] (regadenoson 400 μg IV, at any time, 13/43 subjects), the “subjects with AEs: vascular disorders” value is on record as 30%. For the same compound, the “subjects with AEs: nervous system disorders” value with normal subjects [1] (regadenoson 400 μg IV, at any time, 18/43 subjects) amounted to 42%. In the series on normal subjects [1] (setting [11]), the “subjects with AEs: cardiac disorders” value is recorded as 58%; the “subjects with AEs: respiratory, thoracic and mediastinal disorders” value amounted to 58%. In addition, the “decrease in MAP (peak) from baseline” value with conscious dogs [2] (regadenoson 5 μg/kg IV in the absence of caffeine, baseline 102±2 mm Hg, n=9) is 15±2%. Besides, in the series on conscious dogs [2] (regadenoson 5 μg/kg IV without caffeine, baseline 80±4 beats/min, n=9), the “increase in HR (peak) from baseline” value is reported as 114±14%. The “decrease in LVSP (peak) from baseline” value in the series with conscious dogs [2] (regadenoson 5 μg/kg IV without caffeine, baseline 139±5 mm Hg, n=8) is given as 9±1%. In addition, in the series with conscious dogs [2] (regadenoson 5 μg/kg IV, baseline 3240±196 mm Hg/s), the “increase in LV dP/dtMax (peak) from baseline” value was 65±7%.
